Test: wn = mass fraction of the nth substance listed
Conditions: 101.3 kPa, Liquid; for viscosity: Falling or rolling sphere viscometry; for mass density: Vibrating tube method

COCCO [2-methoxyethan-1-ol] + NCCO
Conditions	mass density [kg/m3]	viscosity [mPa·s]
293.15 K, w2 = 0	964.7	1.692
293.15 K, w2 = 0.1	971.8	2.321
293.15 K, w2 = 0.3	984.5	4.371
293.15 K, w2 = 0.5	995.6	7.952
293.15 K, w2 = 0.7	1005.1	13
293.15 K, w2 = 0.898	1013.4	20.5
298.15 K, w2 = 0	960.1	1.527
298.15 K, w2 = 0.1	967.3	2.065
298.15 K, w2 = 0.3	980.2	3.765
298.15 K, w2 = 0.5	991.4	6.634
298.15 K, w2 = 0.7	1001	10.51
298.15 K, w2 = 0.898	1009.4	16.17
303.15 K, w2 = 0	955.5	1.386
303.15 K, w2 = 0.1	962.8	1.849
303.15 K, w2 = 0.3	975.8	3.269
303.15 K, w2 = 0.5	987.1	5.598
303.15 K, w2 = 0.7	996.9	8.619
303.15 K, w2 = 0.898	1005.4	12.97
308.15 K, w2 = 0	950.9	1.262
308.15 K, w2 = 0.1	958.3	1.664
308.15 K, w2 = 0.3	971.5	2.861
308.15 K, w2 = 0.5	982.9	4.773
308.15 K, w2 = 0.7	992.8	7.158
308.15 K, w2 = 0.898	1001.4	10.55
313.15 K, w2 = 0	946.2	1.155
313.15 K, w2 = 0.1	953.7	1.504
313.15 K, w2 = 0.3	967.1	2.521
313.15 K, w2 = 0.5	978.6	4.105
313.15 K, w2 = 0.7	988.6	6.011
313.15 K, w2 = 0.898	997.3	8.699
318.15 K, w2 = 0	941.5	1.061
318.15 K, w2 = 0.1	949.1	1.367
318.15 K, w2 = 0.3	962.7	2.235
318.15 K, w2 = 0.5	974.3	3.561
318.15 K, w2 = 0.7	984.4	5.098
318.15 K, w2 = 0.898	993.3	7.265
323.15 K, w2 = 0	936.7	0.9781
323.15 K, w2 = 0.1	944.5	1.246
323.15 K, w2 = 0.3	958.2	1.992
323.15 K, w2 = 0.5	970	3.112
323.15 K, w2 = 0.7	980.3	4.367
323.15 K, w2 = 0.898	989.2	6.134
328.15 K, w2 = 0	932	0.905
328.15 K, w2 = 0.1	939.9	1.141
328.15 K, w2 = 0.3	953.8	1.786
328.15 K, w2 = 0.5	965.7	2.741
328.15 K, w2 = 0.7	976	3.775
328.15 K, w2 = 0.898	985.1	5.229
333.15 K, w2 = 0	927.2	0.8397
333.15 K, w2 = 0.1	935.2	1.049
333.15 K, w2 = 0.3	949.2	1.609
333.15 K, w2 = 0.5	961.3	2.427
333.15 K, w2 = 0.7	971.8	3.288
333.15 K, w2 = 0.898	981	4.503
338.15 K, w2 = 0	922.3	0.7818
338.15 K, w2 = 0.1	930.4	0.967
338.15 K, w2 = 0.3	944.7	1.456
338.15 K, w2 = 0.5	956.9	2.161
338.15 K, w2 = 0.7	967.5	2.884
338.15 K, w2 = 0.898	976.9	3.91
343.15 K, w2 = 0	917.4	0.7298
343.15 K, w2 = 0.1	925.7	0.8945
343.15 K, w2 = 0.3	940.1	1.324
343.15 K, w2 = 0.5	952.5	1.936
343.15 K, w2 = 0.7	963.3	2.546
343.15 K, w2 = 0.898	972.7	3.42
348.15 K, w2 = 0	912.4	0.6834
348.15 K, w2 = 0.1	920.8	0.8302
348.15 K, w2 = 0.3	935.5	1.207
348.15 K, w2 = 0.5	948	1.741
348.15 K, w2 = 0.7	958.9	2.261
348.15 K, w2 = 0.898	968.5	3.011
353.15 K, w2 = 0	907.4	0.6409
353.15 K, w2 = 0.1	916	0.7712
353.15 K, w2 = 0.3	930.8	1.105
353.15 K, w2 = 0.5	943.5	1.568
353.15 K, w2 = 0.7	954.6	2.019
353.15 K, w2 = 0.898	964.3	2.67

— the NIST ThermoML archive (doi:10.1016/j.jct.2018.12.028)
